As a reminder, the IC50 is the concentration at which inhibition is half-maximal.

The results in this text go back to US5798381A, “Biologically active bistramides, process for their production and their applications in therapy” (Institut Francais de Recherche Scientifique pour le …, priority 1993, dated 1998).

Values after ≈ are worked out from the molar mass of the structure shown. Where two headings read alike, the source gives them in different places.

Data set [1] concerns Plasmodium vinckei petteri. As to the kind of experiment: Study of the parasitic stage susceptible to bistramides. In kind it is in vivo, Plasmodium vinckei petteri in SWISS female white mice. The settings on record: for patent period: time necessary for the parasitemia to reach 1%: 15 mg/kg, control 5 D. Here is the method: In order to appreciate the parasitic stage or stages the most susceptible to the action of the bistramides of the invention, the effect of these bistramides was studied on each parasitic stage predominant during the cell cycle for a given species of Plasmodium.
The results given hereafter concern the effect of bistramide B on the parasitic stages of Plasmodium vinckei petteri.
After infestation of the mice, five batches of five mice are constituted. Each batch is treated with a dose of 15 mg/kg of bistramide D at the moment when one of the stages predominates.
In addition, the following batches are prepared: one control batch, one batch of merozoites, one ring batch, one batch of young trophozoites, one batch of middle trophozoites and one batch of old trophozoites.
The following are evaluated: the retardation of parasitemia or the patent period as the time in days necessary for the parasitemia to reach 1%.

Data set [2] relates to Plasmodium vinckei petteri. Description: Flow cytometry study of parasitized murine red blood corpuscles. The settings on record: G1 phase, maturation stage. The text has this:
The consequence of this is to halt the proliferation at the middle and old trophozoite stage.
(A flow cytometer gives signals particle by particle.)

The subject of the next data set is P388 (p388s). As to the kind of experiment: Cytotoxicity, 50% inhibition of cell growth, P388. The settings on record: Mus musculus, P388/S; p388s; read-out: IC50 (50% inhibition of cell growth). In kind it is cell-based. Here is the method:
(§1) The cytoxicity results are recorded hereafter as the IC50 in μg/ml (concentration corresponding to a 50% inhibition of cell growth) on 6 tumoural lines namely KB, P388, P388/dox (resistant to doxorubicin), B16 and H429 and NSCLC-N6, which are human cells of non-small cell bronchopulmonary carcinoma type.
(§2) The determinations were carried out according to the protocol given in Cancer Chemother. Pharmacol. (1991) 28:283-292 by Roussakis et al.

Another data set has as its system mice. Description: Acute toxicity (LD50), intravenous injection in mice. In kind it is in vivo. The settings on record: statement in words. Here is the method: The LD50 of these bistramides is in fact of the order of 1.7 mg/kg (measured in mice, after injection of the product by intravenous route as a single dose).
The "LD50 " of the products of the invention has been measured for mice after injection of the products by intravenous route.

A further data set deals with NSCLC.N6-L16. Description: Cytotoxicity, 50% inhibition of cell growth, NSCLC-N6. In kind it is cell-based. The settings on record: Homo sapiens; NSCLC.N6-L16; read-out: IC50 (50% inhibition of cell growth). As to the method:
as §1, §2

The next data set relates to L.(L) donovani. Description: Anti-leishmanial activity in vitro. The class given is cell-based. The settings on record: 500 μg/ml.
For another data set, the system named is B16. As to the kind of experiment: Cytotoxicity, 50% inhibition of cell growth, B16. The settings on record: Mus musculus, B16; read-out: IC50 (50% inhibition of cell growth). In kind it is cell-based. Here is the method:
as §1, §2

The subject of data set [3] is NSCLC solid tumours (xenograft). In kind it is in vivo, nude mouse. The settings on record: at the end of 30 days. Here is the method:
The anti-tumoural activity of the products of the invention was studied against solid tumours of NSCLC type grafted onto a nude mouse (D. Riou, C. Roussakis, J. F. Biard, J. F. Verbist: "Comparative study of antitumor activity of bistramides A, D and K against non-small cell bronchopulmonary carcinoma", Anticancer Research, 1993, 13, 2321-2334). Each mouse received 0.2 ml of a cell solution obtained by the mechanical dispersion of about 1 g of excised mouse tumour in 4.8 ml of a sterile saline solution. The sub-cutaneous grafted tumours were measured over their long length L and their short length 1. The tumoural volume was evaluated according to the formula Vt=L×1^2 /2. The tumoural growth on day d was calculated by the formula Vtd /Vtd0 for each mouse, Vtd0 being the tumoural volume at the start of treatment.
The curve "------.circle-solid.------ " relates to the control experiment, the curves "--- .diamond-solid.---", "-- .quadrature.--" and "-- .box-solid.--" to experiments with 10, 20 and 5 mg/kg of bistramide D respectively and the curve "----*----" to an experiment with 10 mg/kg of bistramide K. Each point represents the average tumoural growth for 6 mice.
In these experiments, bistramide K is injected at the rate of 10 mg/kg by intraperitoneal route for 16 days and bistramide D at the rate of 5 mg/kg by intraperitoneal route every day for 16 days; at 10 mg/kg by intravenous route on days 1, 5, 9, 14, and at 20 mg/kg by intravenous route on days 1, 5, 9, 14.

Data set [4] relates to Plasmodium vinckei petteri. Description: PETERS test (4-day anti-malarial test in mice). In kind it is in vivo, Plasmodium vinckei petteri in SWISS female white mice. The settings on record: 15 mg/kg/day, 4 days, sub-cutaneous; for percentage inhibition of parasitemia: D4. As to the method:
The animals used are SWISS (IFFA CREDO) female white mice weighing approximately 30 grams. Five mice are distributed per batch.
The species Plasmodium vinckei petteri used comes from the strain 279 BY (see article by Cambie G et al. in CR.Acad.Sci.PARIS 310, series III, 183-188). This plasmodia carries out a schizogonic cycle in 24 hours in a synchronous fashion. Using the freezing-thawing technique for infected blood, only the merozoite stage resists, the other forms being destroyed.
Observation of blood parasites takes place on stained smears carried out by taking a drop of blood from the tail. The smears are then stained with May-Grumwald-Giesma. Calculation of the parasitemia (number of parasites per 100 red blood corpuscles) is carried out on smears.
In these trials bistramide D is used in sterile physiological water containing 5% DMSO.
The product is injected by sub-cutaneous route in the thigh.
In order to verify the activity of the compound studied, the PETERS test is used which constitutes the reference for the screening of molecules with anti-malarial activity. (PETERS W. 1980. Chemotherapy and Drug resistance in Malaria, vol II, Academic Press).
After treatment for 4 days, the percentage of red blood corpuscles parasitized is compared on thin smears between the control batch and the treated batch. In this way a percentage inhibition is established. […]
a) injection of 10^7 of parasitized red blood corpuscles by I.P. route (D0) b) injection of Bistramide D at 15 mg/kg/day, for 4 days by sub-cutaneous route (D0, D1. D2, D3) c) checking the parasitemia on smears on D4

For `C/C=C/C(O)CC1CCC(C)C(CC(=O)NCC(O)C(C)C(=O)NCCCC2OC3(CCCC(CCC(C)/C=C(\C)C(C)O)O3)CCC2C)O1` (stereo not drawn) [Bistramide D], in [1] (KRUSKAL-WALLIS unilateral test, middle and old trophozoite), the “stage selectivity / significance versus control batch” value is given as “selective activity”. Also, the “patent period: time necessary for the parasitemia to reach 1%” value in data set [1] (merozoite batch) amounted to 5 D; in data set [1] (middle trophozoite batch) it was 6.25 D; in [1] (old trophozoite batch), 6.2 D; in data set [1] (ring batch), 5.4 D; in data set [1] (young trophozoite batch), 5.6 D. Besides, the “blocking of the parasite / of parasitic proliferation” value in [2] is reported as “partial blocking of the parasite at its maturation stage”. In addition, the values for the 50% inhibitory concentration (IC50) in the data set with P388 (p388s), in the data set with NSCLC.N6-L16 and in the data set with B16 were 0.36 µg/mL (≈ 0.509 µM), 3.43 µg/mL (≈ 4.85 µM) and 0.1 µg/mL (≈ 0.141 µM), respectively. Also, the toxicity in vivo entry in the data set on mice is “less toxic”. Also, in the data set with L.(L) donovani, the anti-leishmanial activity entry is listed as “has an anti-leishmanial activity in vitro”. Further, the “tumoural growth relative to controls (100%)” value in data set [3] (5 mg/kg, IP, every day for 16 days) is 100%; in data set [3] (10 mg/kg, IV, days 1, 5, 9, 14), 76%; in [3] (20 mg/kg, IV, days 1, 5, 9, 14), 53%. For the same molecule, the “percentage inhibition of parasitemia” value in [4] (trial A) is 85%; in [4] (trial B) it was 87%; in [4] (trial C), 81%. In addition, the “parasitemia, treated batch on D4” value in [4] (trial A, controls 4%) is listed as 0.64%; in data set [4] (trial B, controls 4%) it was 0.50%; in [4] (trial C, controls 1.2%), 0.23%.
